Results on one compound are retold here after US4268680A, “Heterocyclic derivatives of 1-(1,3-dioxolan-2-ylmethyl)-1H-imidazoles and 1H-1,2,4-triazoles” (Janssen Pharmaceutica N.V., priority 1979, dated 1981).

In the experiment the test system is Candida albicans. Briefly: Experiment B: Activity of compounds (I) against crop candidosis in turkeys. The format is in vivo. Particulars: Table II; medicated feed for 13 consecutive days; crops of 50% of the animals completely negative for Candida albicans. The procedure:
Experiment B: Activity of compounds (I) against crop candidosis in turkeys. Turkeys of 14 days old were infected in the crop with 4.10^6 Candida albicans cells, grown on Sabouraud broth for 48 hours at 37° C. and diluted with saline. The volume of the inoculum was 1 ml. The drug under investigation were premixed in 500 mg of lacton and thereafter admixed in 1000 g of meal without any additives. The concentration of the drug under investigation in the meal was expressed in mg/kg. The animals were given the medicated feed for 13 consecutive days starting on the day of infection. At the end of the experiment all animals were sacrificed. At autopsy the crops were removed, emptied and grinded in an ultra-turrax mixer in 15 ml of sterile saline. Colony counting was done on Sabouraud agar and the results given in Tables I and II represent the ED50, i.e., the dose of the drug whereby the crops of 50% of the animals were completely negative for Candida albicans.

With `Clc1ccc(C2(Cn3cncn3)OCC(COc3ccc(-n4ccnc4)cc3)O2)c(Cl)c1` (stereo not shown), the “Crop candidosis in Turkeys: EO50 in mg/kg in feed” value came to 8 mg/kg in feed.
